The values that follow come from paper PMC7870829, “Structural basis for the biosynthesis of lovastatin” (Nature Communications, 2021).

In assay [1] the target is T1, LovB (Aspergillus terreus, UniProt Q9Y8A5).
T1 construct: dimer; ACP and CON domains not resolved; DSS-crosslinked with LovC for cryo-EM
Nature of the assay: cryo-EM structure. The settings on record: KR domain NADPH pocket; sample with 2 mM each Mal-CoA, NADPH and SAM; pH 8.0. The class given is binding.

Assay [2] deals with T2, LovC (Aspergillus terreus, UniProt Q9Y7D0).
T2 construct: full-length, His-tagged (pET28_LovCcH), expressed in E. coli, without LovB
T2 sequence (Q9Y7D0 1-363): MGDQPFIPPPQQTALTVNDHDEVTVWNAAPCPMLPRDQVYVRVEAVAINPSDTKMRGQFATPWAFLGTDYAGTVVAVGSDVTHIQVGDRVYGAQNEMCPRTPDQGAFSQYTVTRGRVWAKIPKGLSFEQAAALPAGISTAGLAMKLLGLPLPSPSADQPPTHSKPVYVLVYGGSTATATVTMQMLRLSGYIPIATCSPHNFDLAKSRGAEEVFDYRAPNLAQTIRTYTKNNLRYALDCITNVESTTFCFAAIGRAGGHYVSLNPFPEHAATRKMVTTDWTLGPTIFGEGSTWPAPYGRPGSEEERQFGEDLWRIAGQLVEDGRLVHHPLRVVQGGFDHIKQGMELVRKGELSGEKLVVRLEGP
Nature of the assay: NADPH fluorescence (Ex […] nm, Em […] nm). The class given is biochemical. To be noted: 100 μM NADPH, 200 μM crotonoyl-CoA, 100 mM KH2PO4 pH 7.0, 2% DMSO, 25 °C.

Assay [3] has as its target lovastatin nonaketide synthase (LovB), full-length, His-tagged (Aspergillus terreus) (UniProt Q9Y8A5). Nature of the assay: cryo-EM structure; LovB mixed with LovC and 2 mM each of Mal-CoA, NADPH and SAM, cross-linked with DSS, SEC on Superose 6 Increase (50 mM Tricine pH 8.0, 4 mM SAM), cofactors re-added, 0.1% Tween 20; maps at 2.91 Å (LovB) and 3.60 Å (LovBC with one LovC).

T1 sequence (Q9Y8A5 whole entry, the tested form may be a part): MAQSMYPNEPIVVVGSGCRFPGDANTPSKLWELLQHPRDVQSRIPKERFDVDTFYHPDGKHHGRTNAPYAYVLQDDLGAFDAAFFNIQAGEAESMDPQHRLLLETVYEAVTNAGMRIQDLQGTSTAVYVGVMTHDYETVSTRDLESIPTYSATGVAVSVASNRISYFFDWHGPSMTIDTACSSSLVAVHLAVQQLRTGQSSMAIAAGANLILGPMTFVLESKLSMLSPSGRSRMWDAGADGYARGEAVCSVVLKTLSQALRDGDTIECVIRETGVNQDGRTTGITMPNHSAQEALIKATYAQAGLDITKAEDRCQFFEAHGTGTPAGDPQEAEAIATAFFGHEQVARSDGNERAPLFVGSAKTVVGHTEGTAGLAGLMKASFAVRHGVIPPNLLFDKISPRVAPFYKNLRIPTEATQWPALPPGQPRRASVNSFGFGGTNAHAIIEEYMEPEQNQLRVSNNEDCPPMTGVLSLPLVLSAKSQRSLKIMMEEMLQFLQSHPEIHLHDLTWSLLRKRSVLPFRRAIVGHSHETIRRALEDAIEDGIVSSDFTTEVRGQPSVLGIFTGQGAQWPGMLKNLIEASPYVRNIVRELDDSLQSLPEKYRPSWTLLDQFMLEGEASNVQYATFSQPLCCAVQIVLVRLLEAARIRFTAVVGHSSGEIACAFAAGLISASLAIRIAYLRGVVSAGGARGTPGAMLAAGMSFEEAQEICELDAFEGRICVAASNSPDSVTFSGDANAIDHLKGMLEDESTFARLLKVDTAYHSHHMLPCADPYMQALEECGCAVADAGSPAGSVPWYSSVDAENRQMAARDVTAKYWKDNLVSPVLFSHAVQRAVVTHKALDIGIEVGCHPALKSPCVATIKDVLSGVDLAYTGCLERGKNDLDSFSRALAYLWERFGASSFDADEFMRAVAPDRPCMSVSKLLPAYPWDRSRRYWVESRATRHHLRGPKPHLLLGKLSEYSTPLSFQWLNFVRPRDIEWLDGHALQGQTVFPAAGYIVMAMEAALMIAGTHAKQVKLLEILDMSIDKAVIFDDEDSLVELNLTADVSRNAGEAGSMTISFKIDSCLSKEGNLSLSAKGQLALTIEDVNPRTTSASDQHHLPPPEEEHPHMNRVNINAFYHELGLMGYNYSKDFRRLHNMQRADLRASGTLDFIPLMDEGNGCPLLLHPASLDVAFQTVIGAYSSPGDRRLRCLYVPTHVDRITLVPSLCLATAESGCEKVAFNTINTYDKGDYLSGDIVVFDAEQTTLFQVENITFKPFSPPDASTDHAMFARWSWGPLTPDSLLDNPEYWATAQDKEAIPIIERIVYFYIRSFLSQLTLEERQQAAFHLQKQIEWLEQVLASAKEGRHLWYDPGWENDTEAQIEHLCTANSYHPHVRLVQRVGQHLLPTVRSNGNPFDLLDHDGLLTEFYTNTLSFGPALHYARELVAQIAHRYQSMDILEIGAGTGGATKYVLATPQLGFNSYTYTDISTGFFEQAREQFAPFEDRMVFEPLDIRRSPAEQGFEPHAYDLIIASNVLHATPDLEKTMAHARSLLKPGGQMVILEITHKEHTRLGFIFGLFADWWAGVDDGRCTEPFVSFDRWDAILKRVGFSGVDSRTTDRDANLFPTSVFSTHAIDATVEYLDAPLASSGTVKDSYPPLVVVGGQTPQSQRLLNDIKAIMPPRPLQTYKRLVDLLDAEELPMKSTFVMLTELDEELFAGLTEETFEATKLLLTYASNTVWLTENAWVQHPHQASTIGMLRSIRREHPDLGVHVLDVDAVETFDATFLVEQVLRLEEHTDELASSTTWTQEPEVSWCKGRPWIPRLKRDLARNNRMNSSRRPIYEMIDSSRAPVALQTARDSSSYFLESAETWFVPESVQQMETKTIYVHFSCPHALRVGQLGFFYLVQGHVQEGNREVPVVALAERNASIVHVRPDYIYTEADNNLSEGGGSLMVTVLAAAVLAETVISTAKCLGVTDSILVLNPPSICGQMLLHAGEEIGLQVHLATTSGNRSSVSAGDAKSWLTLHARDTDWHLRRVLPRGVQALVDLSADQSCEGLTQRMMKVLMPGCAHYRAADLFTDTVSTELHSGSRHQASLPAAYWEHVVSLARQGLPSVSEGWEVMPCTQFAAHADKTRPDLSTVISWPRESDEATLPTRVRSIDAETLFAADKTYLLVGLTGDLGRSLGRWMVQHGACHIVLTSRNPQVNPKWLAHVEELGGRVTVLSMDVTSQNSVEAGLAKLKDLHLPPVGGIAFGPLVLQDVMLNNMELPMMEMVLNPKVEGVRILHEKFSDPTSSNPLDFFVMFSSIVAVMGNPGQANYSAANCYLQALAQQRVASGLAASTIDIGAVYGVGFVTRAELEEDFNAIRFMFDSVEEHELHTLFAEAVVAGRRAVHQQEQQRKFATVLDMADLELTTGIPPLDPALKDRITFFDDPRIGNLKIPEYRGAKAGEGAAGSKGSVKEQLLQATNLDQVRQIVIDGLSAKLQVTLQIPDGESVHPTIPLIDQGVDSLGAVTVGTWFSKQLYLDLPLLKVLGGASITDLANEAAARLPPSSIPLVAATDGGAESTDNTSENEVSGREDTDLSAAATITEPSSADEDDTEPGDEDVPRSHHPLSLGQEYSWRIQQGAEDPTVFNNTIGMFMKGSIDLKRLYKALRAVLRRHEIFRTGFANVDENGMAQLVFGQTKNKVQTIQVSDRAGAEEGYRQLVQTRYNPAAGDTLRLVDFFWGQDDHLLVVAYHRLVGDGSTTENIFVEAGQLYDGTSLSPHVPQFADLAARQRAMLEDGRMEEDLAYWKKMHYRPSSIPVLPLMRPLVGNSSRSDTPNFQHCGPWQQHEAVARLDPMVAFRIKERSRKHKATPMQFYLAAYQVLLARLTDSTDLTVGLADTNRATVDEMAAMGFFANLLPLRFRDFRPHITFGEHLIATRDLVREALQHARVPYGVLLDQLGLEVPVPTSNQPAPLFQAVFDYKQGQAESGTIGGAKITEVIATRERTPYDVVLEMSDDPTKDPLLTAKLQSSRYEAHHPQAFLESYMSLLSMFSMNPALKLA

For the compound `NC(=O)c1ccc[n+]([C@@H]2O[C@H](COP(=O)(O)OP(=O)(O)OC[C@H]3O[C@@H](n4cnc5c(N)ncnc54)[C@H](OP(=O)(O)O)[C@@H]3O)[C@@H](O)[C@H]2O)c1` [NADP+], the cryo-EM structure result in assay [1] is listed as “The NADPH binding pocket with bound NADP^+ nicotinamide ring can be clearly identified”.

`NC(=O)C1=CN([C@@H]2O[C@H](COP(=O)(O)OP(=O)(O)OC[C@H]3O[C@@H](n4cnc5c(N)ncnc54)[C@H](OP(=O)(O)O)[C@@H]3O)[C@@H](O)[C@H]2O)C=CC1` [NADPH]: the “NADPH fluorescence (Ex 340 nm, Em 455 nm)” value in assay [2] was “NADPH was oxidized in the presence of substrate over time”.

A word on the stoichiometry N: it is a count of units in the complex or per binding partner. Compound “lovastatin nonaketide synthase (LovB), full-length, His-tagged, Q9Y8A5 1-3038” yielded a stoichiometry N in assay [3] of 2.
